Measurements: paper PMC8429549, “Glycosylation reduces the glycan-independent immunomodulatory effect of recombinant Orysata lectin in Drosophila S2 cells” (Scientific Reports, 2021)

Target: T1, BOry (recombinant Orysata from E. coli) (Oryza sativa, UniProt Q0JMY8)
T1 construct: gene SALT; pColdII, N-terminal poly-His tag kept; E. coli BL21; non-glycosylated
T1 sequence (Q0JMY8 1-145): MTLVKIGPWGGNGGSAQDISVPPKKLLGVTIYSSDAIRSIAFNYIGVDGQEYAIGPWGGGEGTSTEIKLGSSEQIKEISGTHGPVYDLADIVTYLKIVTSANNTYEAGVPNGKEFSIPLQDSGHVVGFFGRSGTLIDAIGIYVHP
Experiment: competition: FITC-BOry on blot of glycosylated YOry
Format: binding
Details: 20 mM mannose in PBS preincubated 20 min; FITC-labelled lectin; competitive with the N-glycan of YOry

OC[C@H]1OC(O)[C@@H](O)[C@@H](O)[C@@H]1O (stereo partly shown) [mannose]
competition: FITC-BOry on blot of glycosylated YOry: Preincubation of the FITC-BOry with mannose, abolished the binding to the glycosylated YOry
